Laboratory results published in ChEMBL document CHEMBL1151674, “Oscillapeptin G, a tyrosinase inhibitor from toxic Oscillatoria agardhii” (J Nat Prod, 1996).

Biological target: T1, Tyrosinase (Homo sapiens) (UniProt P14679)
T1 sequence (whole entry): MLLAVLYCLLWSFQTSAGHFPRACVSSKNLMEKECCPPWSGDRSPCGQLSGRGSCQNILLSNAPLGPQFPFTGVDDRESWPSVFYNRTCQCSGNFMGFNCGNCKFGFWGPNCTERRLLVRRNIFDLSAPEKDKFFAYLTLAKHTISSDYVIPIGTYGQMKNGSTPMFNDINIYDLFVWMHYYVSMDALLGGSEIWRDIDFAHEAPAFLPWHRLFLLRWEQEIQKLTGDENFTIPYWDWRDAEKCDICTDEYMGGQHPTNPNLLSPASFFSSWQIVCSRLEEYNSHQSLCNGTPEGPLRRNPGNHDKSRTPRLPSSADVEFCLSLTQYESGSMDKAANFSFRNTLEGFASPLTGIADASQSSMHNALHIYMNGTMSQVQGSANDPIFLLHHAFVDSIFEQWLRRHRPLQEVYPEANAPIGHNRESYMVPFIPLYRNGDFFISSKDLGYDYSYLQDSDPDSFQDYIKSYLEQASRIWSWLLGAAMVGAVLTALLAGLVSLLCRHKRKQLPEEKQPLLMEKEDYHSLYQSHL
Test: Inhibition of tyrosinase-mediated formation of melanin from tyrosine at 100 uM relative to control

In the case of `CC[C@H](C)[C@@H]1NC(=O)[C@H](Cc2ccc(O)cc2)N(C)C(=O)[C@H]([C@H](C)O)N2C(=O)[C@H](CC[C@H]2O)NC(=O)[C@H](CC(C)C)NC(=O)[C@@H](NC(=O)[C@H](CCC(N)=O)NC(=O)[C@H](CCc2ccc(O)cc2)NC(=O)[C@H](O)CO)[C@@H](C)OC1=O`, the inhibition is reported as 55%.
